The source of these data is patent US20260116845A1, “LIPIDS AND COMPOSITIONS THEREOF” (Kernal Biologics, Inc., priority 2023, published 2026).

One assay relates to MC38.K Cell Line. The assay can be described thus: Transfection of MC38.K Cell Line with FLuc mRNA LNPs (ONE-Glo EX luciferase signal). Format: cell-based. Conditions: 200 ng Fluc mRNA-LNP, 24 hours; for Total Luciferin Signal (RLU) In Vitro - MC38.K: Table 4. Here is the method:
(§1) mRNA encapsulated lipid nanoparticles (mRNA LNPs) were formulated using microfluidic mixing with a PNI Ignite instrument. Briefly, lipids (ionizable: structural: helper: PEG) were dissolved in ethanol and mixed with and aqueous solution of mRNA. These mRNA-loaded dispersions were then neutralized via a buffer exchange with a pre-determined buffer overnight. Afterwards, formed LNPs were concentrated with Amicon filter centrifugation, filtered, concentration of mRNA determined through a ribogreen assay, and frozen at −80° C. until use.
(§2) Cell lines were grown to confluence in T75 flasks using complete media of DMEM-F12 for AML12 and DMEM for both B16F10 and MC38.K. Cells were plated in a white 96 flat-well plate (AML12=20,000 cells/well, B16F10 and MC38.K=5,000 cells/well) with their respected media. Lipid nanoparticles were first diluted to 50 μg/ml using Opti-MEM and pre-incubated with mouse serum for 30 minutes to give an LNP concentration of 8 μg/ml. Cell media was replaced with Opti-MEM and LNPs were added to cells (200 ng of mRNA-LNP), placed back in the incubator, and allowed to transfect for 24 hours. Afterwards, 100 μl of Promega's ONE-Glo™ EX Luciferase Assay System or Promega's CellTiter-Glo® Luminescent Cell Viability Assay was added and mixed in their respective wells, followed by recording luminescence signals on a Thermo Scientific Varioskan LUX multimode microplate reader. The results are shown in FIG. 1, FIG. 2, FIG. 3, FIG. 4, FIG. 5, FIG. 6, FIG. 10, FIG. 11, and FIG. 21.

Another assay deals with AML12 Cell Line. In words: Transfection of AML12 Cell Line with FLuc mRNA LNPs (ONE-Glo EX luciferase signal). Conditions: 200 ng Fluc mRNA-LNP, 24 hours. Format: cell-based. Here is the method: as §1, §2
For another assay, the system named is Liver. The assay can be described thus: Ex-vivo luminescence signal from liver after IV Fluc mRNA LNPs in CD1 mice (IVIS). Particulars: tail vein 1.0 mg/kg Day 0 and Day 2, imaging 18 hours after second dose, Table 4.
In another assay the test system is B16F10 Cell Line. In words: Transfection of B16F10 Cell Line with FLuc mRNA LNPs (ONE-Glo EX luciferase signal). It counts as cell-based. Conditions: 200 ng Fluc mRNA-LNP, 24 hours. Here is the method:
as §1, §2

As for `CCCCCCCCC(CCCCCCCC)OC(=O)CCCCCCCN(CCO)CCCCCC(=O)OCCCCCCCCC(C)C` [Compound 1], the “Total Luciferin Signal (RLU) In Vitro - MC38.K” value in the assay with MC38.K Cell Line turned out to be 7.83E+06 RLU. Also, in the assay with AML12 Cell Line (Table 4), the “Total Luciferin Signal (RLU) In Vitro - AML12” value stood at 1.96E+06 RLU. Also, the “Total Liver Tissue Luciferin Signal (Photons/s) Ex-vivo - CD1” value (shortened to “Total Liver Tissue Luciferin Signal”) in the assay with Liver is 9.00E+09 Photons/s. Further, the “Total Luciferin Signal (RLU) In Vitro - B16F10” value with B16F10 Cell Line (Table 4) amounted to 6.92E+06 RLU.
`CCCCCCCCC(CCCCCCCC)OC(=O)CCCCCCCN(CCO)CCCCCCCC(=O)OCCCCCCCCC(C)C` [Compound 2]: the “Total Luciferin Signal (RLU) In Vitro - MC38.K” value with MC38.K Cell Line worked out at 4.24E+06 RLU. For the same compound, in the assay with AML12 Cell Line (Table 4), the “Total Luciferin Signal (RLU) In Vitro - AML12” value is 4.76E+06 RLU. Further, the “Total Liver Tissue Luciferin Signal” value in the assay on Liver stood at 6.20E+09 Photons/s. For the same compound, in the assay on B16F10 Cell Line (Table 4), the “Total Luciferin Signal (RLU) In Vitro - B16F10” value amounted to 5.94E+06 RLU.
The matching figures for `CCCCCCCCC(CCCCCCCC)OC(=O)CCCCCCCN(CCCCCCCC(=O)OCCCCCCCCC(C)C)CCOC(=O)CCCN(C)C` [Compound 3]: 2.99E+06 RLU, 3.82E+06 RLU, 8.57E+07 Photons/s and 4.58E+06 RLU.
On the same counts, the results for `CCCCCCCCC(CCCCCCCC)C(=O)OCCCCCCCN(CCO)CCCCCCCC(=O)OCCCCCCCCC(C)C` [Compound 4] are 3.54E+06 RLU, 1.72E+06 RLU, 1.06E+09 Photons/s and 2.16E+06 RLU.
With `CCCCCCCCC(CCCCCCCC)C(=O)OCCCCCCCN(CCO)CCCCCC(=O)OCCCCCCCCC(C)C` [Compound 6], the “Total Luciferin Signal (RLU) In Vitro - MC38.K” value in the assay with MC38.K Cell Line was found to be 9.66E+05 RLU. The “Total Luciferin Signal (RLU) In Vitro - AML12” value with AML12 Cell Line (Table 4) is 8.42E+05 RLU. Moreover, the “Total Liver Tissue Luciferin Signal” value in the assay with Liver was determined as 2.10E+09 Photons/s. Moreover, the “Total Luciferin Signal (RLU) In Vitro - B16F10” value in the assay on B16F10 Cell Line (Table 4) stood at 5.77E+05 RLU.
`CCCCCCCCC(CCCCCCCC)C(=O)OCCCCCCCN(CCCCCC(=O)OCCCCCCCCC(C)C)CCOC(=O)CCCN(C)CCO` [Compound 8]: the “Total Luciferin Signal (RLU) In Vitro - MC38.K” value in the assay with MC38.K Cell Line is recorded as 3.40E+06 RLU. For the same compound, in the assay with AML12 Cell Line (Table 4), the “Total Luciferin Signal (RLU) In Vitro - AML12” value is listed as 1.43E+05 RLU. In the assay with Liver, the “Total Liver Tissue Luciferin Signal” value came out at 2.13E+08 Photons/s. Besides, the “Total Luciferin Signal (RLU) In Vitro - B16F10” value in the assay with B16F10 Cell Line (Table 4) worked out at 9.69E+05 RLU.
For `CCCCCCCCCCCOC(=O)CCCCCN(CCO)CCCCCCCC(=O)OC(CCCCCCCC)CCCCCC(C)C` (stereo not drawn) [Compound 18], the “Total Luciferin Signal (RLU) In Vitro - AML12” value with AML12 Cell Line (Table 4) is reported as 2.99E+06 RLU. In the assay with Liver, the “Total Liver Tissue Luciferin Signal” value is 4.74E+09 Photons/s. For the same compound, in the assay on B16F10 Cell Line (Table 4), the “Total Luciferin Signal (RLU) In Vitro - B16F10” value was determined as 2.65E+06 RLU.
As to `CCCCCCCCCCCCN(CCO)CCCCCCCC(=O)OC(CCCCCCCC)CCCCCCCC` [Compound 41], in the assay with AML12 Cell Line (Table 4), the “Total Luciferin Signal (RLU) In Vitro - AML12” value is 3.63E+06 RLU. In the assay with Liver, the “Total Liver Tissue Luciferin Signal” value was determined as 8.12E+09 Photons/s. Also, in the assay on B16F10 Cell Line (Table 4), the “Total Luciferin Signal (RLU) In Vitro - B16F10” value is listed as 2.52E+06 RLU.
Turning to `CCCCCCCCCOC(=O)CCCCCCCN(CCO)CCCCCCCCOC(=O)C(CCCC)CCCCCCF` (stereo not drawn) [Compound 82, 8-((2-hydroxyethyl)(8-(nonyloxy)-8-oxooctyl)amino)octyl 2-butyl-8-fluorooctanoate], the “Total Luciferin Signal (RLU) In Vitro - MC38.K” value with MC38.K Cell Line is given as 6.18E+04 RLU. Moreover, in the assay with AML12 Cell Line (Table 4), the “Total Luciferin Signal (RLU) In Vitro - AML12” value is reported as 1.48E+04 RLU. The “Total Luciferin Signal (RLU) In Vitro - B16F10” value in the assay with B16F10 Cell Line (Table 4) was determined as 1.70E+04 RLU.
`CCCCCCCCCOC(=O)CCCCCCCN(CCO)CCCCCCCC(=O)OC(CCCCCCCC)CCCCCCCCCl` (stereo not drawn) [Compound 83, 1-chloroheptadecan-9-yl 8-((2-hydroxyethyl)(8-(nonyloxy)-8-oxooctyl)amino)octanoate]: the “Total Luciferin Signal (RLU) In Vitro - MC38.K” value in the assay with MC38.K Cell Line came to 2.14E+06 RLU. For the same compound, the “Total Luciferin Signal (RLU) In Vitro - AML12” value in the assay with AML12 Cell Line (Table 4) is 1.85E+05 RLU. Moreover, the “Total Luciferin Signal (RLU) In Vitro - B16F10” value with B16F10 Cell Line (Table 4) turned out to be 4.41E+05 RLU.
For `CCCCCCCCCOC(=O)CCCCCCCN(CCO)CCCCCCCC(=O)OC(CCCCCCCF)CCCCCCCF` [Compound 84, 1,15-difluoropentadecan-8-yl 8-((2-hydroxyethyl)(8-(nonyloxy)-8-oxooctyl)amino)octanoate], in the assay on MC38.K Cell Line, the “Total Luciferin Signal (RLU) In Vitro - MC38.K” value was determined as 5.52E+05 RLU. For the same compound, the “Total Luciferin Signal (RLU) In Vitro - AML12” value in the assay with AML12 Cell Line (Table 4) amounted to 5.18E+04 RLU. Further, the “Total Luciferin Signal (RLU) In Vitro - B16F10” value in the assay with B16F10 Cell Line (Table 4) is 8.32E+04 RLU.
On the same counts, the results for `CCCCCCCCCOC(=O)C(C)CCCCCCN(CCCCO)CCCCCCCC(=O)OCC(CCCCCC)CCCCCCCCF` (stereo not drawn) [Compound 85, nonyl 8-((8-((10-fluoro-2-hexyldecyl)oxy)-8-oxooctyl)(4-hydroxybutyl)amino)-2-methyloctanoate] are 6.32E+07 RLU, 7.47E+06 RLU and 1.03E+07 RLU.
`CCCCCCC(CCCCCCCCF)COC(=O)CCCCCCCN(CCCCO)CCCCCCC(C)C(=O)OCCCCCCCCC(C)C` (stereo not drawn) [Compound 86, 9-methyldecyl 8-((8-((10-fluoro-2-hexyldecyl)oxy)-8-oxooctyl)(4-hydroxybutyl)amino)-2-methyloctanoate]: in the assay on MC38.K Cell Line, the “Total Luciferin Signal (RLU) In Vitro - MC38.K” value worked out at 3.80E+07 RLU. In addition, the “Total Luciferin Signal (RLU) In Vitro - AML12” value with AML12 Cell Line (Table 4) is recorded as 3.99E+06 RLU. The “Total Luciferin Signal (RLU) In Vitro - B16F10” value with B16F10 Cell Line (Table 4) amounted to 7.58E+06 RLU.
With `CCCCCCCCC(CCCCCCCCF)C(=O)OCCCCCCCN(CCO)CCCCCCCOC(=O)C(C)CCCCCCCC(C)C` (stereo not drawn) [Compound 87, 7-((7-((10-fluoro-2-octyldecanoyl)oxy)heptyl)(2-hydroxyethyl)amino)heptyl 2,10-dimethylundecanoate], in the assay on MC38.K Cell Line, the “Total Luciferin Signal (RLU) In Vitro - MC38.K” value is 6.61E+06 RLU. For the same compound, the “Total Luciferin Signal (RLU) In Vitro - AML12” value with AML12 Cell Line (Table 4) was determined as 1.52E+06 RLU. In addition, the “Total Luciferin Signal (RLU) In Vitro - B16F10” value in the assay on B16F10 Cell Line (Table 4) came to 3.16E+06 RLU.
On the same counts, the results for `CCCCC(CCCCCCF)C(=O)OCCCCCCCCN(CCCCO)CCCCCCC(C)C(=O)OCCCCCCCCC(C)C` (stereo not drawn) [Compound 88, 8-((4-hydroxybutyl)(7-methyl-8-((9-methyldecyl)oxy)-8-oxooctyl)amino)octyl 2-butyl-8-fluorooctanoate] are 1.24E+07 RLU, 3.65E+05 RLU and 9.41E+05 RLU.
For the compound `CCCCCCCCC(CCCCCCCCF)C(=O)OCCCCCCCN(CCCCO)CCCCCCCOC(=O)C(C)CCCCCCCC(C)C` (stereo not drawn) [Compound 89, 7-((7-((10-fluoro-2-octyldecanoyl)oxy)heptyl)(4-hydroxybutyl)amino)heptyl 2,10-dimethylundecanoate], the “Total Luciferin Signal (RLU) In Vitro - MC38.K” value with MC38.K Cell Line was 3.88E+07 RLU. Moreover, in the assay with AML12 Cell Line (Table 4), the “Total Luciferin Signal (RLU) In Vitro - AML12” value was 7.66E+06 RLU. For the same compound, the “Total Luciferin Signal (RLU) In Vitro - B16F10” value with B16F10 Cell Line (Table 4) is reported as 9.61E+06 RLU.
For `CCCCCCCC/C=C\CCCCCCC1CN(CCO)CC(CCCCCC(=O)OC(CCCCCCCC)CCCCCCC(C)C)O1` (stereo not drawn) [Compound 98, 2-methylheptadecan-9-yl (Z)-6-(6-(hexadec-7-en-1-yl)-4-(2-hydroxyethyl)morpholin-2-yl)hexanoate], the “Total Luciferin Signal (RLU) In Vitro-MC38” value with MC38.K Cell Line (Table 5) was determined as 7.95E+04 RLU. In the assay on AML12 Cell Line (Table 5), the “Total Luciferin Signal (RLU) In Vitro - AML12” value is given as 4.38E+04 RLU. In addition, in the assay with B16F10 Cell Line (Table 5), the “Total Luciferin Signal (RLU) In Vitro - B16F10” value is given as 1.27E+05 RLU.
